Assay results from PubChem BioAssay AID1259407 (Chemical Carcinogenesis Research Information System (CCRIS), 2018).
The source made the active and inactive calls. The rule behind the calls is not given here.

System: CCRIS mutagenicity, Ames/micronucleus/aberration tests
Test: CCRIS mutagenicity studies
[1] = Test System: AMES SALMONELLA TYPHIMURIUM, Strain/Indicator: TA98, Metabolic Activation: NONE, Method: PREINCUBATION
[2] = Test System: AMES SALMONELLA TYPHIMURIUM, Strain/Indicator: TA100, Metabolic Activation: NONE, Method: PREINCUBATION
[3] = Test System: AMES SALMONELLA TYPHIMURIUM, Strain/Indicator: TA1535, Metabolic Activation: NONE, Method: PREINCUBATION

With `Cc1ccccc1C(N)=O` the mutagenic call (Test System: AMES SALMONELLA TYPHIMURIUM, Strain/Indicator: TA97, Metabolic Activation: HAMSTER, LIVER, S-9, AROCLOR 1254 (10 OR 30%), Method: PREINCUBATION) was “inactive; negative”, the mutagenic call (Test System: AMES SALMONELLA TYPHIMURIUM, Strain/Indicator: TA97, Metabolic Activation: NONE, Method: PREINCUBATION) was “inactive; negative” and the mutagenic call (Test System: AMES SALMONELLA TYPHIMURIUM, Strain/Indicator: TA97, Metabolic Activation: RAT, LIVER, S-9, AROCLOR 1254 (10 OR 30%), Method: PREINCUBATION) was “inactive; negative”. The mutagenic call (Test System: AMES SALMONELLA TYPHIMURIUM, Strain/Indicator: TA98, Metabolic Activation: HAMSTER, LIVER, S-9, AROCLOR 1254 (10 OR 30%), Method: PREINCUBATION) was “inactive; negative”, the mutagenic call [1] was “inactive; negative” and the mutagenic call (Test System: AMES SALMONELLA TYPHIMURIUM, Strain/Indicator: TA98, Metabolic Activation: RAT, LIVER, S-9, AROCLOR 1254 (10 OR 30%), Method: PREINCUBATION) was “inactive; negative”. For the same compound, the mutagenic call (Test System: AMES SALMONELLA TYPHIMURIUM, Strain/Indicator: TA100, Metabolic Activation: HAMSTER, LIVER, S-9, AROCLOR 1254 (10 OR 30%), Method: PREINCUBATION) was “inactive; negative”, the mutagenic call [2] was “inactive; negative” and the mutagenic call (Test System: AMES SALMONELLA TYPHIMURIUM, Strain/Indicator: TA100, Metabolic Activation: RAT, LIVER, S-9, AROCLOR 1254 (10 OR 30%), Method: PREINCUBATION) was “inactive; negative”. For the same compound, the mutagenic call (Test System: AMES SALMONELLA TYPHIMURIUM, Strain/Indicator: TA1535, Metabolic Activation: HAMSTER, LIVER, S-9, AROCLOR 1254 (10 OR 30%), Method: PREINCUBATION) was “inactive; negative”, the mutagenic call [3] was “inactive; negative” and the mutagenic call (Test System: AMES SALMONELLA TYPHIMURIUM, Strain/Indicator: TA1535, Metabolic Activation: RAT, LIVER, S-9, AROCLOR 1254 (10 OR 30%), Method: PREINCUBATION) was “inactive; negative”.
In the case of `CC(=O)OC1CC(C)OC(C)O1` (stereo unspecified), the mutagenic call (Test System: AMES SALMONELLA TYPHIMURIUM, Strain/Indicator: TA98, Metabolic Activation: HAMSTER, LIVER, S-9, AROCLOR 1254, Method: PREINCUBATION) was “inactive; negative”, the mutagenic call [1] was “inactive; negative” and the mutagenic call (Test System: AMES SALMONELLA TYPHIMURIUM, Strain/Indicator: TA98, Metabolic Activation: RAT, LIVER, S-9, AROCLOR 1254, Method: PREINCUBATION) was “inactive; negative”. For the same compound, the mutagenic call (Test System: AMES SALMONELLA TYPHIMURIUM, Strain/Indicator: TA100, Metabolic Activation: HAMSTER, LIVER, S-9, AROCLOR 1254, Method: PREINCUBATION) was “active; positive”, the mutagenic call [2] was “inactive; negative” and the mutagenic call (Test System: AMES SALMONELLA TYPHIMURIUM, Strain/Indicator: TA100, Metabolic Activation: RAT, LIVER, S-9, AROCLOR 1254, Method: PREINCUBATION) was “active; positive”. The mutagenic call (Test System: AMES SALMONELLA TYPHIMURIUM, Strain/Indicator: TA1535, Metabolic Activation: HAMSTER, LIVER, S-9, AROCLOR 1254, Method: PREINCUBATION) was “inactive; negative”, the mutagenic call [3] was “inactive; negative” and the mutagenic call (Test System: AMES SALMONELLA TYPHIMURIUM, Strain/Indicator: TA1535, Metabolic Activation: RAT, LIVER, S-9, AROCLOR 1254, Method: PREINCUBATION) was “inactive; negative”. The mutagenic call (Test System: AMES SALMONELLA TYPHIMURIUM, Strain/Indicator: TA1537, Metabolic Activation: HAMSTER, LIVER, S-9, AROCLOR 1254, Method: PREINCUBATION) was “inactive; negative”, the mutagenic call (Test System: AMES SALMONELLA TYPHIMURIUM, Strain/Indicator: TA1537, Metabolic Activation: NONE, Method: PREINCUBATION) was “inactive; negative” and the mutagenic call (Test System: AMES SALMONELLA TYPHIMURIUM, Strain/Indicator: TA1537, Metabolic Activation: RAT, LIVER, S-9, AROCLOR 1254, Method: PREINCUBATION) was “inactive; negative”.
For `CN=NNc1ccc(C(=O)O)cc1`, the mutagenic call (Test System: AMES SALMONELLA TYPHIMURIUM, Strain/Indicator: TA92, Metabolic Activation: NONE, Method: STANDARD PLATE) was “active; positive” and the mutagenic call (Test System: E. COLI B, Strain/Indicator: TM9, Metabolic Activation: NONE, Method: STANDARD PLATE) was “active; positive”.
